The results in this text go back to BindingDB's records for doi:10.1021/jm010576e (Chiba University, 2002).

Molecules are shown by their SMILES.

The nature of the assay: Binding affinity using guinea pig brain membrane preparations, towards Opioid receptor delta 1 using [3H]DPDPE as radioligand.
A word on the Ki: it is the dissociation constant of the complex between target and ligand, obtained from inhibition or displacement. Consider `CC[C@@H]1CN2CCc3c([nH]c4ccccc34)[C@@H]2C[C@@H]1/C(=C\OC)C(=O)OC` [CHEBI:70073], for which the affinity, expressed as Ki, was 2880 nM.

On to `CC[C@@H]1CN2CC[C@@]3(O)C(=Nc4cccc(OC)c43)[C@@H]2C[C@@H]1/C(=C\OC)C(=O)OC`, for which the affinity, expressed as Ki, was 155 nM.

`CC[C@@H]1CN2CCc3c([nH]c4cccc(OC)c34)[C@@H]2C[C@@H]1/C(=C\OC)C(=O)OC` [CHEBI:6956] registered a Ki of 60 nM.

The molecule `CC[C@@H]1CN2CCc3c([nH]c4cccc(O)c34)[C@@H]2C[C@@H]1/C(=C\OC)C(=O)OC` returned a Ki of 30900 nM.
